Experimental data reported in the supplement of paper PMC10307832.

Assays:
Experiment in all cases: relative viability (nuclei count vs DMSO), 5 days (fraction); higher = more cells survive
BMX-IN-1 + Crizotinib = compound: C=CC(=O)Nc1cc(-n2c(=O)ccc3cnc4ccc(-c5ccc(NS(C)(=O)=O)cc5)cc4c32)ccc1C [BMX-IN-1] + C[C@@H](Oc1cc(-c2cnn(C3CCNCC3)c2)cnc1N)c1c(Cl)ccc(F)c1Cl [Crizotinib] (partner 1 µM)
Outline: (§1)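 A single step with final 0.05% Triton X-100, 1% formaldehyde and 1 ug/ml Hoechst fixed the cells and stained nuclei 5 days after treatment. Lung cancer cell lines in 1536-well plates had been treated by pin tool the day after seeding with one drug alone or a fixed anchor-drug dose plus five library-drug doses (not always all listed) in √10 steps, and nuclei were counted on 4× images. Relative viability is the ratio of nuclei in treated wells to nuclei in vehicle wells, taken as the median of duplicate plates.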

Ibrutinib + Linsitinib = compound: C=CC(=O)N1CCC[C@@H](n2nc(-c3ccc(Oc4ccccc4)cc3)c3c(N)ncnc32)C1 [Ibrutinib] + C[C@]1(O)C[C@@H](c2nc(-c3ccc4ccc(-c5ccccc5)nc4c3)c3c(N)nccn32)C1 [Linsitinib] (partner 1 µM)
Outline: as §1

BMX-IN-1 + Navitoclax = compound: C=CC(=O)Nc1cc(-n2c(=O)ccc3cnc4ccc(-c5ccc(NS(C)(=O)=O)cc5)cc4c32)ccc1C [BMX-IN-1] + CC1(C)CCC(c2ccc(Cl)cc2)=C(CN2CCN(c3ccc(C(=O)NS(=O)(=O)c4ccc(N[C@H](CCN5CCOCC5)CSc5ccccc5)c(S(=O)(=O)C(F)(F)F)c4)cc3)CC2)C1 [Navitoclax] (partner 0.5 µM)
Outline: as §1

Ibrutinib + Palbociclib = compound: C=CC(=O)N1CCC[C@@H](n2nc(-c3ccc(Oc4ccccc4)cc3)c3c(N)ncnc32)C1 [Ibrutinib] + CC(=O)c1c(C)c2cnc(Nc3ccc(N4CCNCC4)cn3)nc2n(C2CCCC2)c1=O [Palbociclib] (partner 0.5 µM)
Outline: as §1

Cell Line	relative viability (BMX-IN-1 + Crizotinib; first compound 0.02 µM)	relative viability (BMX-IN-1 + Crizotinib; first compound 0.2 µM)	relative viability (BMX-IN-1 + Crizotinib; first compound 0.6325 µM)	relative viability (BMX-IN-1 + Crizotinib; first compound 2 µM)	relative viability (Ibrutinib + Linsitinib; first compound 0.005 µM)	relative viability (Ibrutinib + Linsitinib; first compound 0.01581 µM)	relative viability (Ibrutinib + Linsitinib; first compound 0.05 µM)	relative viability (Ibrutinib + Linsitinib; first compound 0.1581 µM)	relative viability (Ibrutinib + Linsitinib; first compound 0.5 µM)	relative viability (BMX-IN-1 + Navitoclax; first compound 0.02 µM)	relative viability (BMX-IN-1 + Navitoclax; first compound 0.2 µM)	relative viability (BMX-IN-1 + Navitoclax; first compound 0.6325 µM)	relative viability (BMX-IN-1 + Navitoclax; first compound 2 µM)	relative viability (Ibrutinib + Palbociclib; first compound 0.005 µM)	relative viability (Ibrutinib + Palbociclib; first compound 0.01581 µM)	relative viability (Ibrutinib + Palbociclib; first compound 0.05 µM)	relative viability (Ibrutinib + Palbociclib; first compound 0.1581 µM)	relative viability (Ibrutinib + Palbociclib; first compound 0.5 µM)
201T	1.03	1.05	1.09	1.05	0.961	1.05	1.01	1.06	0.907	1.14	1.21	1.18	1.2	0.225	0.327	0.377	0.378	0.36
A549	0.986	1.22	0.945	0.738	–	0.58	0.519	0.505	0.377	1.5	1.44	1.37	1.17	–	–	–	–	–
A-427	0.966	0.903	1.09	0.887	0.986	1.09	1.15	1.1	1.12	1.04	0.987	0.971	1.01	0.549	0.533	0.491	–	0.496
ABC-1	1.22	1.27	0.69	0.904	0.822	0.736	0.795	0.879	0.644	–	–	–	–	0.482	0.439	–	–	0.733
BEN	1.25	1.05	0.537	0.901	0.766	0.885	0.853	0.851	0.883	0.066	0.0691	0.224	0.0676	0.462	0.465	0.491	0.459	0.453
CAL-12T	0.798	0.827	0.618	0.562	0.805	0.724	0.627	0.739	0.472	1.28	1.21	1.22	1.24	0.241	0.286	0.233	0.286	0.14
COR-L23	0.942	0.641	0.864	0.767	1.16	0.867	0.973	0.986	–	1.52	1.46	1.14	1.02	0.285	0.304	0.282	0.353	0.332
COR-L 105	0.832	0.892	0.727	0.583	0.739	0.811	0.709	0.914	0.321	0.756	0.779	0.875	0.709	0.403	0.406	0.424	0.393	0.303
